From EP0207696A1, “Dialkylaminotetrahydrobenzothiazoles and oxazoles” (ELI LILLY AND COMPANY, priority 1985, dated 1987)

How the values were obtained:
conscious SHR = experiment: hypotensive action in conscious SHR; type: in vivo; settings: 1 mg/kg i.v.
Procedure: In another test for hypotensive action conscious SHR, cannulated in the femoral artery and vein, were used. The drug was administered i.v. (±)-2-Amino-6-dimethylamino-5,6,7,8-tetrahydrobenzothiazole was tested in this system as the dihydrobromide salt at a 1 mg/kg dose. In the table, column 1 gives time in minutes after injection and columns 2 and 3 the mean percent decrease in arterial pressure and heart rate respectively for that time interval.

prolactin secretion = experiment: inhibition of prolactin secretion in reserpinized rats; type: in vivo, rats of the Sprague-Dawley strain; settings: percent prolactin inhibition; 50 mcg/kg intraperitoneally; serum one hour after treatment; reserpine-pretreated male rats
Source text: As previously stated, the compounds of this invention (wherein neither R^3 nor R^4 is H) are receptor agonists; ie, they are capable of increasing the quantities of various neurohormones--dopamine and norepi- nephrine in particular--available for interaction with specific receptors. For example, the compound according to XX wherein R^1 and R^2 are H and R^3 and R^4 are both n-propyl, is a specific dopamine D-2 agonist.
Adult male rats of the Sprague-Dawley strain weighing about 200 g were housed in an air-conditioned room with controlled lighting (lights on 6 a.m. - 8 p.m.) and fed lab chow and water ad libitum. Each rat received an intraperitoneal injection of 2.0 mg of reserpine in aqueous suspension 18 hours before administration of the test drug. The purpose of the reserpine was to keep the rat prolactin levels uniformly elevated. The compound was dissolved in 10 percent ethanol, and injected intraperitoneally to groups of ten rats at preselected dose levels. A control group of 10 intact males received an equivalent amount of 10 percent ethanol. One hour after treatment, all rats were killed by decapitation, and 150 µl aliquots of serum were assayed for prolactin.
The difference between the prolactin levels of the treated rats and the control rats, divided by the prolactin level of the control rats gives the percent inhibition of prolactin secretion attributable to the given dose. […]

[1] = tested on: 6-hydroxydopamine-lesioned rats; experiment: turning behavior in 6-hydroxydopamine-lesioned rats; type: in vivo; settings: 1000 mcg/kg; first 15 minutes after the end of the latency period
Source text: Dopamine agonists are also known to affect turning behavior in 6-hydroxydopamine-lesioned rats in a test procedure designed to uncover compounds useful for the treatment of Parkinsonism. In this test, nigroneostriatal-lesioned rats are employed, as prepared by the procedure of Ungerstedt and Arbuthnott, Brain Res, 24, 485 (1970). A compound having dopamine agonist activity causes the rats to turn in circles contralateral to the side of the lesion. After a latency period, which varies from compound to compound, the number of turns is counted over a 15-minute period.
Results obtained from such testing for (±)-2-amino-6-di-n-propylamino-5,6,7,8-tetrahydrobenzothiazole dihydrobromide are set forth in Table 2 below. In the table, column 1 gives the dose and column 2 the average number of turns observed in first 15 minutes after the end of the latency period.

[2] = tested on: anesthetized spontaneously hypertensive rats; experiment: blood pressure in anesthetized spontaneously hypertensive rats; type: in vivo; settings: anesthetized SHR
Procedure: Compounds according to XX, particularly those wherein both R^3 and R^4 are methyl, reduce the blood pressure of anesthetized spontaneously hypertensive rats, as illustrated by the following experiment: • Adult male spontaneously hypertensive rats (SHR) (Taconic Farms, Germantown, New York), weighing approximately 300 g. were anesthetized with pentobarbital sodium (60 mg./kg., i.p.). The trachea was cannulated and the SHR respired room air. Pulsatile arterial blood pressure was measured from a cannulated carotid artery using a Statham transducer (P23 ID). Mean arterial blood pressure was calculated as diastolic blood pressure plus 1/3 pulse pressure. Cardiac rate was monitored by a cardiotachometer which was triggered by the systolic pressure pulse. Drug solutions were administered i.v. through a catheter placed in a femoral vein.
Arterial blood pressure and cardiac rate were recorded on a multichannel oscillograph (Beckman, Model R511A). Fifteen minutes were allowed to elapse following surgery for equilibration of the preparation.
Table 3 which follows gives the results of this test using (±)-2-amino-6-di-n-propyl-5,6,7,8-tetra- hydrobenzothiazole dihydrobromide. In Table 3, column 1 gives the dose level, column 2, the change in mean arterial blood pressure.

CN(C)C1CCc2nc(N)sc2C1 (racemic) [(±)-2-Amino-6-dimethylamino-5,6,7,8-tetrahydrobenzothiazole]
PERCENT CHANGE FROM CONTROL Blood Pressure (conscious SHR; 5 minutes after injection): -3.6% | PERCENT CHANGE FROM CONTROL Heart Rate (conscious SHR; 5 minutes after injection): -12.3% | PERCENT CHANGE FROM CONTROL Blood Pressure (conscious SHR; 15 minutes after injection): -17.1% | PERCENT CHANGE FROM CONTROL Heart Rate (conscious SHR; 15 minutes after injection): -17.7% | PERCENT CHANGE FROM CONTROL Blood Pressure (conscious SHR; 30 minutes after injection): -18.6% | PERCENT CHANGE FROM CONTROL Heart Rate (conscious SHR; 30 minutes after injection): -15.5% | PERCENT CHANGE FROM CONTROL Blood Pressure (conscious SHR; 45 minutes after injection): -16.9% | PERCENT CHANGE FROM CONTROL Heart Rate (conscious SHR; 45 minutes after injection): -8.3% | PERCENT CHANGE FROM CONTROL Blood Pressure (conscious SHR; 60 minutes after injection): -17.2% | PERCENT CHANGE FROM CONTROL Heart Rate (conscious SHR; 60 minutes after injection): -5.2% | PERCENT CHANGE FROM CONTROL Blood Pressure (conscious SHR; 90 minutes after injection): -16.9% | PERCENT CHANGE FROM CONTROL Heart Rate (conscious SHR; 90 minutes after injection): -0.7% | PERCENT CHANGE FROM CONTROL Blood Pressure (conscious SHR; 120 minutes after injection): -15.8% | PERCENT CHANGE FROM CONTROL Heart Rate (conscious SHR; 120 minutes after injection): -4.1% | PERCENT CHANGE FROM CONTROL Blood Pressure (conscious SHR; 180 minutes after injection): -14.7% | PERCENT CHANGE FROM CONTROL Heart Rate (conscious SHR; 180 minutes after injection): -4.1%

CCCN(CCC)C1CCc2nc(N)sc2C1 (racemic) [(±)-2-Amino-6-di-n-propylamino-5,6,7,8-tetrahydrobenzothiazole]
% Inhibition (prolactin secretion): 30% | Average number of Turns [1]: 51 | Decrease in Mean Arterial Blood Pressure ([2]; 1 mcg/kg i.v.): -16.1 ± 2.4 | Decrease in Mean Arterial Blood Pressure ([2]; 10 mcg/kg i.v.): -21.0 ± 2.0 | Decrease in Mean Arterial Blood Pressure ([2]; 100 mcg/kg i.v.): -34.1 ± 3.2 | Decrease in Mean Arterial Blood Pressure ([2]; 1000 mcg/kg i.v.): +13.5 ± 4.4
